# Measured values: ChEMBL document CHEMBL1141907, “Synthesis and in vitro biological evaluation of a carbon glycoside analogue of morphine-6-glucuronide” (Bioorg Med Chem Lett, 2005)
# “And” between values parts separate entries of the source, which are not always exact repeats. Equal entries are not always repeated. The source made the active and inactive calls. The rule behind the calls is not given here.
# Columns and labels:
# [1] = Stimulation of [35S]GTPcS binding against recombinant human opioid receptor kappa 1;ND=no detectable activity; assay type: functional
# [2] = Stimulation of [35S]GTPcS binding against recombinant human opioid receptor mu 1; assay type: functional
# [3] = Stimulation of [35S]GTPcS binding against recombinant human opioid receptor delta 1; assay type: functional
# Homo sapiens [4] = species on record: Homo sapiens; experiment: Percentage stimulation of [35S]GTPcS binding compared to relevant control;ND=no detectable activity; assay type: functional
# [5] = Inhibition of [3H]U-69593 binding to recombinant human Opioid receptor kappa 1
# Mu-type opioid receptor = Mu-type opioid receptor (Homo sapiens, UniProt P35372); experiment: Inhibition of [3H]-DAMGO binding to recombinant human Opioid receptor mu 1
# [6] = Inhibition of [3H]DPDPE binding to recombinant human Opioid receptor delta 1
# [7] = Half life in rat liver microsomes; assay type: ADME, Microsome
# [8] = Half life in human liver microsomes; assay type: ADME, Microsome
# [9] = Half life in monkey liver microsomes; assay type: ADME, Microsome; details: cercopithecidae
# [10] = molecular target: Opioid receptors; mu & delta (Homo sapiens) (UniProt P41143+P35372); experiment: Receptor selectivity ratio for Opioid receptors delta 1 and mu 1; assay type: protein assay
# [11] = Stimulation of [35S]GTPcS binding against recombinant human opioid receptor kappa 1; assay type: functional
# Homo sapiens [12] = species on record: Homo sapiens; experiment: Percentage stimulation of [35S]GTPcS binding compared to relevant control; ND=Not detectable activity; assay type: functional
# Homo sapiens [13] = species on record: Homo sapiens; experiment: Percentage stimulation of [35S]-GTPcS binding compared to relevant control; assay type: functional
# Sequence of Opioid receptors; mu & delta (Homo sapiens) (P35372 whole entry, looked up): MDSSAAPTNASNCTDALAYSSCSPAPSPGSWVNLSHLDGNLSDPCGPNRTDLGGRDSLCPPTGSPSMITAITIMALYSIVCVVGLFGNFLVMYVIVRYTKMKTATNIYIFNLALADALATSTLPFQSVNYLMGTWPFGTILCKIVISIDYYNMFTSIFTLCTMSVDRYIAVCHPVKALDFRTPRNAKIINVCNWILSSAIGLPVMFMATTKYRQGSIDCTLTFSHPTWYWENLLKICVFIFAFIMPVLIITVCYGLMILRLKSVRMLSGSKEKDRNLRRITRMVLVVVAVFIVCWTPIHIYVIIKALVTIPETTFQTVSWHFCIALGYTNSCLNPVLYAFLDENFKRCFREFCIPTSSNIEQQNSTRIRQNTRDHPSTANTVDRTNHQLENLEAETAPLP
# Sequence of Opioid receptors; mu & delta (Homo sapiens) (P41143 whole entry, looked up): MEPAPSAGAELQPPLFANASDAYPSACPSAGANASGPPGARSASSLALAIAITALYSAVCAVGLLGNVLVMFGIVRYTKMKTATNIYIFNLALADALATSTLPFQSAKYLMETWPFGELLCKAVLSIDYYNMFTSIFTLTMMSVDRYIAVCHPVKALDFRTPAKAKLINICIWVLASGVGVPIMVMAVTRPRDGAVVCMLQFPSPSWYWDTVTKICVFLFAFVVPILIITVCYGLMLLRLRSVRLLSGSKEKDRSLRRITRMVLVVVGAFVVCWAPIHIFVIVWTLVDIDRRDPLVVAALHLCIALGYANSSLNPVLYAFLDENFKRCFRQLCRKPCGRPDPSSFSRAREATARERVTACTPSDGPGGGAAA
# Sequence of Mu-type opioid receptor (P35372 whole entry): as the sequence (P35372 whole entry, looked up) above
SMILES,EC50 [1],EC50 [2],EC50 [3],Emax (Homo sapiens [4]),Ki [5],Ki (Mu-type opioid receptor),Ki [6],half-life [7],half-life [8],half-life [9],Selectivity [10],EC50 [11],Emax (Homo sapiens [12]),Emax (Homo sapiens [13])
COC1[C@H](SC2OC(C(=O)O)C(O)C(O)C2O)C=C[C@H]2[C@H]3Cc4ccc(O)cc4[C@@]12CCN3C (some centres not stated),Not Active,90.6 nM,50.1 nM,inactive,288 nM,8.7 nM,31.4 nM,–,–,–,–,–,–,–
COC1[C@H](NC(=O)CC2OC(COCc3ccccc3)C(OCc3ccccc3)C(OCc3ccccc3)C2OCc2ccccc2)CC[C@H]2[C@H]3Cc4ccc(O)cc4[C@@]12CCN3C (some centres not stated),–,–,–,–,–,–,–,19.8 min,42.9 min,90 min,–,–,–,–
COC1[C@H](NC(=O)CC2OC(CO)C(O)C(O)C2O)C=C[C@H]2[C@H]3Cc4ccc(O)cc4[C@@]12CCN3C (some centres not stated) [DEPROTECTED COGENER OF M6G],–,37.2 nM,335 nM,–,–,3.5 nM,266 nM,–,–,–,76.7 and 166,–,–,–
CN1CC[C@]23c4c5ccc(O)c4O[C@H]2[C@@H](O[C@@H]2O[C@H](C(=O)O)[C@@H](O)[C@H](O)[C@H]2O)C=C[C@H]3[C@H]1C5 [MORPHINE GLUCURONIDE],–,72.3 nM,190 nM,–,4060 nM,12.9 nM,170 nM,–,–,–,–,> 10000 nM,inactive,–
COC1[C@H](NC(=O)CC2OC(COCc3ccccc3)C(OCc3ccccc3)C(OCc3ccccc3)C2OCc2ccccc2)C=C[C@H]2[C@H]3Cc4ccc(O)cc4[C@@]12CCN3C (some centres not stated),–,623 nM,2.2 nM,–,15.8 nM,0.5 nM,7.2 nM,24.6 min,–,30.7 min,–,1.8 nM,–,–
COC1[C@H](SC2OC(CO)C(O)C(O)C2O)C=C[C@H]2[C@H]3Cc4ccc(O)cc4[C@@]12CCN3C (some centres not stated),–,91.5 nM,192 nM,–,136 nM,–,56.2 nM,–,–,–,10.4 and 25.4,321 nM,–,42.5% and 64.5% and 51.5%
